Assay: xn = mol fraction of the nth substance listed
Conditions: 101 kPa, x1 = 0.5

O=C1CCCCCN1 + CCCC[N+](CCCC)(CCCC)CCCC.[Cl-]
Conditions | electrical conductivity [S/m]
293.15 K | 0.0409
295.65 K | 0.0459
298.15 K | 0.0554
300.65 K | 0.0726
303.15 K | 0.0934
305.65 K | 0.116
308.15 K | 0.142
310.65 K | 0.172
318.15 K | 0.31
320.65 K | 0.368
323.15 K | 0.431
325.65 K | 0.49
330.65 K | 0.61
333.15 K | 0.707

Source: a compilation of properties of binary mixtures (doi:10.1016/j.molliq.2012.10.026)
